# Measured values as given in patent US20180338952A1, “COMPOSITIONS AND METHODS FOR TREATING AND DIAGNOSING OCULAR DISORDERS” (Translatum Medicus Inc., priority 2014, published 2018).
# “Also recorded” adds a separate entry of the source.
# How the values were obtained:
# [1] = tested on: circulating monocytes and resident macrophages; assay: Monocyte/macrophage depletion in the NaIO3 model, FAF/DNIRA pattern; format: in vivo, rat; conditions: for NaIO3-induced pattern of FAF (and DNIRA): macrophage/monocyte depletion, Day 3 and Day 7 after NaIO3
# Description: To determine the identity of the autofluorescent cells that coincide with the reticular pattern of FAF, excised retina were stained for with markers of the innate immune system, avoiding the 488 nm channel. Iba1 is a pan-microglial/macrophage marker and in the rat retina; antibodies against it identify the major phagocytic cell populations. […] Further, when compared against photoreceptor nuclear staining, this curvilinear pattern is seen to lie interposed between folds of the deformed ONL. This pattern of Iba1^+ cells corresponds with the pattern of hyperfluorescence observed in vivo by FAF imaging, and with the pattern of autofluorescent cells in excised retina. […] Importantly, at 7 days after NaIO3, all RPE cells are absent from the posterior eye cup, confirming that these cells cannot be responsible for the observed FAF. Also, identification of the autofluorescent cells as phagocytic was confirmed by comparison of imaging to preparations in which monocyte/macrophage depletion has been undertaken. Such depletion was achieved by treatment with gadolinium chloride (GAD).
# Further, to confirm that hyperfluorescent FAF or abnormal patterns of FAF and hyperfluorescent DNIRA correlated or co-localized with the distribution of phagocytic cells, the circulating macrophage/monocyte population was depleted using gadolinium chloride (GAD or GdCl3), a rare earth metal salt which depresses macrophage activity. […] This was evident qualitatively both within the geographic areas of damage, and at its border (FIGS. 8A-C).
# [2] = tested on: retinal function (b-wave amplitude); assay: Electroretinography toxicity study of systemic ICG; conditions: high (5.0 mg/kg) and low (0.35 mg/kg) systemic dose vs PBS; three weeks following injection
# Description: Electroretinography (ERG) was performed to evaluate potential toxicity.
# Electroretinography (ERG): animals receiving ICG or PBS were evaluated using the Espion (DiagnosysLLC, USA) mini-Ganzfeld ERG system. Following anesthesia, animals were placed on an electrically silent heating pad and gold coil electrodes placed on the corneal surface after application of GenTeal lubricating drops. Following a short train of dim flashes (0.01 candela s/m^2, 1.0 Hz), a scotopic b-wave amplitude was evaluated using a single bright flash (3 candela s/m^2) that we previously determined consistently produces a response close to the maximum b-wave amplitude. Student t-test was used to compare post-injection amplitudes against baseline (prior to injection).
# [3] = biological target: complement factor D (CFD) (Homo sapiens, UniProt P00746); conditions: phase II, 18 month period, patients; cited from earlier work
# complement factor D (CFD), sequence (P00746 26-253): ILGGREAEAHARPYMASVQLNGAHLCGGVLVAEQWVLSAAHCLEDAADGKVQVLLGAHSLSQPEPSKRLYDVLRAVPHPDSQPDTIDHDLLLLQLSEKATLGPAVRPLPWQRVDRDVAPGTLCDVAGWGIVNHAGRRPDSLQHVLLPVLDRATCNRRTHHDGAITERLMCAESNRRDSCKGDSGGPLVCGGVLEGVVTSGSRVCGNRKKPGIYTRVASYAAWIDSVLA
compound,measurement,setting,value
"[Cl][Gd]([Cl])[Cl] [GAD, gadolinium chloride]",area of damage,[1]; 7 days after NaIO3 and simultaneous GAD depletion,smaller areas of damage
same,NaIO3-induced pattern of FAF (and DNIRA),[1],far less well defined reticular patterns of FAF; also recorded: profound alteration; also recorded: less well-demarcated borders
same,NaIO3-induced pattern of FAF (and DNIRA),[1]; listed as gadolinium,alters the FAF pattern
"CC1(C)C(/C=C/C=C/C=C/C=C2\N(CCCCS(=O)(=O)O)c3ccc4ccccc4c3C2(C)C)=[N+](CCCCS(=O)(=O)[O-])c2ccc3ccccc3c21 [ICG, indocyanine green]",change in ERG b-wave amplitude,[2],no statistically significant change
Lampilizumab: complement factor D (CFD) inhibitor; anti-factor D antibody (Genentech),growth (expansion) of geographic atrophy,[3],can slow the growth
